Experimental findings from patent US8138159B2, “Composition for inhibiting function of human Flt3” (Takara Bio Inc., priority 2003, dated 2012) are described below.

Marks after values point to notes of the source that are not given here. Where only a bound is given, the exact number is not on record here.

Format in all cases: cell-based, human
For data set [1], the system named is MV4-11 (ITD mutation) cells. The experiment in a line: growth inhibition by siRNA3 in combination with kinase inhibitor AG1295, WST-1 (Example 4). Conditions: Homo sapiens, MV4-11, kinase inhibitor alone (control siRNA), 72 hours, n=6 mean, read-out: growth inhibition as compared with the cells transfected with the control siRNA/0 μM AG1295. The method, then:
The growth inhibitory activity of treatment with a combination of the composition (synthesized siRNA3) of the present invention and a kinase inhibitor on MV4-11 (ITD mutation) cells was examined. The synthesized siRNA3 used was the same as in item (1) of Example 1 above. As the kinase inhibitor, AG1295 (manufactured by CALBIOCHEM) having high specificity to ITD mutation cells was used.
In the same manner as in item (2) of Example 1 above, MV4-11 cells were cultured at 37° C. for 24 hours in a medium obtained by supplementing 10% by volume fetal bovine serum (FBS) to an RPMI 1640 medium (manufactured by TAKARA BIO INC.) (referred to hereinafter as a culture medium) in the presence of 5% by volume CO2. Then, the MV4-11 cells (1×10^6 cells/ml) suspended in Opti-MEM (trade name, manufactured by Invitrogen) were transferred to a cuvette (manufactured by BIO RAD; gap of 4 mm), and siRNA3 was added to the cuvette so as to give a final concentration of 1.2 μM. Then, the cuvette was set in Gene Pulser Xcell (trade name, manufactured by BIO RAD) and thereafter pulsed with electric field intensity of 650 V/cm for 25 msec. Then, the suspension of the cells in the cuvette was added to, and suspended in, a 4-fold excess volume of the culture medium and dispensed onto a 96-well plate so as to give an amount of 100 μl/well. […]
4 mM AG1295 (dissolved in DMSO) was diluted with the above-mentioned culture medium to prepare AG1295 dilutions at a concentration of 10 μM, 6 μM and 0 μM (0.25% by volume DMSO) and added so as to give an amount of 100 μl/well to the 96-well plate prepared in step (2) above and cultured at 37° C. in the presence of 5% by volume CO2. Seventy-two hours after the culture was initiated, the growth activity of the cells was determined using Premix WST-1 reagent (trade name, manufactured by TAKARA BIO INC.) according to a manufacturer's protocol. Each experiment was carried out with n=6, and the mean was determined. The relative growth ratio (%) to the growth ability of the cells transfected with the control siRNA/0 μM AG1295 was determined. […]
In general terms: Tetrazolium dyes change colour on reduction, which living cells bring about.

Data set [2] deals with EoL1 cells (WT-highly expressing). The experiment in a line: cell growth activity, Premix WST1 (Example 2). Conditions: for Relative growth ability (%) compared with the control: siRNA 10 nM, after 20 hours, n=3 mean, control = transfection without siRNA. The method, then:
(§1) The cells placed in a 96-well plate at a density of 2×10^4 cells/well were cultured in an RPMI medium (containing 10% by volume FBS). The cells were transfected with each of the synthesized (10 nM each) siRNAs, and after 20 hours, the cell growth activity was determined with Premix WST1 reagent (trade name, manufactured by TAKARA BIO INC.). Relative growth ability (%) compared with the growth ability of the control (cells subjected to transfection without adding an siRNA) was determined. Each experiment was carried out with n=3, and the mean was determined.

The test system of data set [3] is MV4-11 cells (ITD mutation-highly expressing). The experiment in a line: cell growth activity, Premix WST1 (Example 2). Conditions: for Relative growth ability (%) compared with the control: siRNA 10 nM, after 20 hours, n=3 mean, control = transfection without siRNA. The method, then:
as §1

Data set [4] has as its system HL60 cells (WT-low expressing). The experiment in a line: cell growth activity, Premix WST1 (Example 2). Particulars: for Ratio of cell-growth activation defining RNA interference effect in HL60 as 1: HL60, the reference itself; for Relative growth ability (%) compared with the control: HL60, siRNA 10 nM, after 20 hours, n=3 mean, control = transfection without siRNA. The method, then:
as §1

In a further data set the test system is Flt3 mRNA. The experiment in a line: Flt3 mRNA interference by synthesized siRNA, real-time RT-PCR (Example 1). Conditions: for inhibition percentage (%) of the relative mRNA expression level (Flt3 mRNA/GAPDH mRNA): siRNA 200 pmol, Oligofectamin, after 24 hours, vs cells transfected without siRNA. The method, then:
Each kind of cell selected from HL-60 cells [Flt3 WT (wild-type) low expressing cells; ATCC CCL-240], EoL-1 cells [Flt3 WT (wild-type) highly expressing cells; ECACC 94042252] and MV4-11 cells [Flt3/ITD highly expressing cells; ATCC CRL-9591] was cultured at 37° C. in an RPMI 1640 medium (manufactured by TAKARA BIO INC.) supplemented with 10% by volume fetal bovine serum (FBS) in the presence of 5% by volume CO2.
Then, the cells (2×10^5 cells/nil) were pre-cultured for 24 hours in a 6-well plate, then recovered, and suspended so as to give a density of 1.5×10^5 cells/ml in Opti-MEM (trade name, manufactured by Invitrogen), and the synthesized siRNA was added to the resulting suspension so as to give a final concentration of 200 pmol. Transfection was carried out using Oligofectamin (trade name, manufactured by Invitrogen) in an amount of 4 μl/reaction, according to an Invitrogen's protocol attached to Oligofectamin (trade name). As a control, the cells were subjected to similar operations without adding the siRNA. The unspecific influence of the siRNA was evaluated using an siRNA to a BCR/ABL chimera mRNA.
Confirmation of RNA interference of the target gene was carried out by determining change in mRNA level by a real-time RT-PCR method as shown below.
Using Oligofectamin (trade name, manufactured by Invitrogen), each kind of cell was transfected with the synthesized siRNA. After 24 hours, whole RNA was extracted from the resulting cells with TRIzol™ reagent (manufactured by Invitrogen), and the resulting product was treated with DNaseI (manufactured by TAKARA BIO INC.). The transfection, the extraction of the whole RNA and the treatment with DNaseI were carried out according to a manufacturer's protocol of the reagent used.
The real-time PCR method was carried out using a Real Time One Step RNA PCR Kit (trade name, manufactured by TAKARA BIO INC.), 100 ng of the resulting RNA as a template and a pair of primers (each 20 pmol), that is, an oligonucleotide having the nucleotide sequence of SEQ ID NO: 13 and an oligonucleotide having the nucleotide sequence of SEQ ID NO: 14. In the real-time RT-PCR method, change in fluorescence based on SYBER Green I (manufactured by TAKARA BIO INC.) was determined with Light Cycler (trade name, manufactured by Roche). The RNA level was standardized by similarly determining GAPDH mRNA with primers set forth in SEQ ID NOs: 15 and 16.
The PCR conditions were as follows: after incubation was carried out at 95° C. for 30 seconds, the reaction was carried out in 40 cycles each consisting of the reaction at 95° C. for 1 second, then at 60° C. for 10 seconds, and at 72° C. for 30 seconds.
The inhibition percentage (%) of the relative mRNA expression level (Flt3 mRNA/GAPDH mRNA) changed by using the synthesized siRNA, as calculated assuming that the relative mRNA expression level (Flt3 mRNA/GAPDH mRNA) of the cells only subjected to each operation of the transfection without adding the synthesized siRNA was 100%, was shown in Table 1.
Background: Real-time PCR tracks product formation cycle by cycle.

Where [5] appears, read: EoL1 (WT-highly expressing), the reference itself.
The mark [6] stands for this setting: MV4-11 (ITD mutation-highly expressing).

Regarding `Cc1cc2ncc(-c3ccccc3)nc2cc1C` [AG1295], the inhibition at 3 µM in data set [1] (3.0 μM) came out at 59.8%. The inhibition at 5 µM in data set [1] (5.0 μM) was determined as 84.3%.
Turning to “siRNA1: siRNA to ATP-binding site region of Flt3 (target SEQ ID NO: 1); sense SEQ ID NO: 2, antisense SEQ ID NO: 3 (sense GGUACUAGGAUCAGGUGCUTT; antisense AGCACCUGAUCCUAGUACCTT; chemistry not given here)”, the “Ratio of cell-growth activation defining RNA interference effect in HL60 as 1” value in data set [2] is “(0.60)”; in data set [3], “(0.49)”; in data set [4], “(1)*”. The “Relative growth ability (%) compared with the control” value in data set [2] is reported as 68.5%; in data set [3] it was 56.4%; in data set [4], 116%. The “Relative ratio of inhibition defining RNA interference effect in EoL1 as 1” value in the data set with Flt3 mRNA (setting [5]) is “(1)*”; in the data set with Flt3 mRNA (setting [6]) it was “(1.6)”. Also, the “inhibition percentage (%) of the relative mRNA expression level (Flt3 mRNA/GAPDH mRNA)” value in the data set with Flt3 mRNA (EoL1 (WT-highly expressing)) is recorded as 41%; in the data set with Flt3 mRNA (HL60 (WT-low expressing)), 31%; with Flt3 mRNA (setting [6]) it was 65%. In addition, the “selective inhibition of Flt3 mRNA expression relative to the inhibition ratio in the cells without ITD mutation (WT)” value in the data set on Flt3 mRNA (cells having ITD mutation vs WT cells) is recorded as not below 1.6 fold.
Turning to “siRNA2: siRNA to TK (kinase) region of Flt3 (target SEQ ID NO: 4); sense SEQ ID NO: 5, antisense SEQ ID NO: 6 (sense CAGGAGUCUCAAUCCAGGUTT; antisense ACCUGGAUUGAGACUCCUGTT; chemistry not given here)”, the “Ratio of cell-growth activation defining RNA interference effect in HL60 as 1” value in data set [2] is listed as “(0.70)”; in data set [3], “(0.36)”; in data set [4], “(1)”. In addition, the entries for the “Relative growth ability (%) compared with the control” value in data set [2], in data set [3] and in data set [4] were 79.7%, 41.4% and 115%, respectively. For the same compound, the “Relative ratio of inhibition defining RNA interference effect in EoL1 as 1” value in the data set with Flt3 mRNA (setting [5]) and in the data set with Flt3 mRNA (setting [6]) was “(1)” in each case. Also, the results for the “inhibition percentage (%) of the relative mRNA expression level (Flt3 mRNA/GAPDH mRNA)” value with Flt3 mRNA (EoL1 (WT-highly expressing)), with Flt3 mRNA (HL60 (WT-low expressing)) and in the data set with Flt3 mRNA (setting [6]) were 54%, 46% and 54%, respectively. For the same compound, the “inhibition of Flt3 mRNA expression relative to the cells without using an siRNA” value with Flt3 mRNA (all cells (MV4-11, EoL1, HL60)) is “around 50%”.
As to “siRNA4: siRNA to BCR/ABL chimera mRNA (target SEQ ID NO: 10); sense SEQ ID NO: 11, antisense SEQ ID NO: 12; unspecific control (sense GCAGAGUUCAAAAGCCCUUTT; antisense AAGGGCUUUUGAACUCUGCTT; chemistry not given here) [reference compound]”, the “inhibition percentage (%) of the relative mRNA expression level (Flt3 mRNA/GAPDH mRNA)” value with Flt3 mRNA (EoL1 (WT-highly expressing)) came to 8%; with Flt3 mRNA (HL60 (WT-low expressing)) it was 7%; with Flt3 mRNA (setting [6]), 5%. In addition, the “inhibition of Flt3 mRNA expression (in words)” value with Flt3 mRNA (siRNA irrelevant to Flt3 mRNA, sequence specificity) was “did not occur”.
